Values joined by “and” are separate entries in the source; they are usually repeats but may differ in a detail not shown here. Equal values may be shown once. Inconclusive results are not listed.
System: Nude mice, LX-1 lung xenograft intrarenal, tumor weight T/C
Experiment: NCI In Vivo Anticancer Drug Screen. Data for tumor model Human Lung LX-1 Xenograft (intrarenal inoculation) in NU/NU BALB/C (nude) mice
Settings: endpoint: mean tumor weight change, higher = larger tumour
Protocol: The antitumor activity of compounds was measured in mice bearing transplantable tumors. Survival or tumor size were measured and the results are expressed as the measurement made in the treated group (T) divided by the measurement made in the vehicle treated control group (C). The tumor model used in this assay is Human Lung LX-1 Xenograft (intrarenal inoculation) in NU/NU BALB/C (nude) mice

[1] = dose: 25.0 mg/kg/injection, schedule: Q01DX010 (sc), vehicle: saline
[2] = dose: 50.0 mg/kg/injection, schedule: Q01DX010 (sc), vehicle: saline
[3] = dose: 100.0 mg/kg/injection, schedule: Q01DX010 (sc), vehicle: saline
[4] = dose: 100.0 mg/kg/injection, schedule: Q04DX003 (sc), vehicle: saline
[5] = dose: 300.0 mg/kg/injection, schedule: Q04DX003 (sc), vehicle: saline with Tween-80
[6] = dose: 600.0 mg/kg/injection, schedule: Q04DX003 (sc), vehicle: saline with Tween-80
[7] = dose: 100.0 mg/kg/injection, schedule: Q01DX010 (sc), vehicle: saline with Tween-80
[8] = dose: 200.0 mg/kg/injection, schedule: Q01DX010 (sc), vehicle: saline with Tween-80
[9] = dose: 200.0 mg/kg/injection, schedule: Q01DX010 (sc), vehicle: saline
[10] = dose: 400.0 mg/kg/injection, schedule: Q01DX010 (sc), vehicle: saline with Tween-80
[11] = dose: 400.0 mg/kg/injection, schedule: Q01DX010 (sc), vehicle: saline

CNC(=O)ON(C(C)=O)C(=O)NC
T/C [1]: 49 % of control | T/C [2]: 85 % of control | T/C [3]: 41 % of control

Nc1cc2[nH]cnc2c(=O)[nH]1
T/C [1]: 75 % of control | T/C [2]: 89 % of control

CCNC(C)(C)C(SSS)c1ccco1 (centres undefined)
T/C (dose: 150.0 mg/kg/injection, schedule: Q04DX003 (sc), vehicle: Klucel (hydroxypropylcellulose) (HPC)): 82 % of control | T/C (dose: 300.0 mg/kg/injection, schedule: Q04DX003 (sc), vehicle: Klucel (hydroxypropylcellulose) (HPC)): 84 % of control | T/C (dose: 600.0 mg/kg/injection, schedule: Q04DX003 (sc), vehicle: Klucel (hydroxypropylcellulose) (HPC)): 76 % of control

Nc1ccc(S(=O)(=O)Nc2cnc3c(Cl)cccc3n2)cc1
T/C (dose: 150.0 mg/kg/injection, schedule: Q04DX003 (ip), vehicle: DMSO): 82 % of control | T/C (dose: 300.0 mg/kg/injection, schedule: Q04DX003 (ip), vehicle: DMSO): 89 % of control | T/C (dose: 600.0 mg/kg/injection, schedule: Q04DX003 (ip), vehicle: DMSO): 45 % of control

COc1cccc2c1C(=O)c1c(O)c3c(c(O)c1C2=O)C[C@@](O)(/C(C)=N\O)C[C@@H]3OC1CC(N)C(O)C(C)O1 (some centres undefined)
T/C (dose: 25.0 mg/kg/injection, schedule: Q04DX003 (sc), vehicle: saline): 87 % of control | T/C (dose: 50.0 mg/kg/injection, schedule: Q04DX003 (sc), vehicle: saline): 65 % of control and 76 % of control | T/C [4]: 17 % of control and 18 % of control

C=COC(=O)C(Cc1ccccc1)NC(=O)OCc1ccccc1 (centres undefined)
T/C [5]: 114 % of control | T/C [6]: 118 % of control | T/C (dose: 1200.0 mg/kg/injection, schedule: Q04DX003 (sc), vehicle: saline with Tween-80): 104 % of control

CCOC1=Cc2c(oc3c(C(C)(C)C)cc(OCC)cc23)OC(C(C)(C)C)=C1
T/C (dose: 150.0 mg/kg/injection, schedule: Q04DX003 (sc), vehicle: saline with Tween-80): 92 % of control | T/C [5]: 101 % of control | T/C [6]: 102 % of control

C[C@@]1(CO)[C@H](O)CC[C@@]2(C)[C@H]1CC[C@H]1C[C@@H]3C[C@@]12CC[C@@]3(O)COC(=O)CN
T/C (dose: 100.0 mg/kg/injection, schedule: Q01DX010 (sc), vehicle: saline + alcohol): 109 % of control | T/C (dose: 200.0 mg/kg/injection, schedule: Q01DX010 (sc), vehicle: saline + alcohol): 54 % of control

COc1ccc2cc1Oc1ccc(cc1)C[C@H]1c3cc(c(OC)cc3CCN1C)Oc1c(OC)c(OC)cc3c1[C@H](C2)N(C)CC3
T/C [7]: 110 % of control | T/C [8]: 122 % of control

c1cc2n(n1)CCN2
T/C (dose: 50.0 mg/kg/injection, schedule: Q01DX010 (ip), vehicle: saline): 107 % of control | T/C [2]: 26 % of control | T/C (dose: 100.0 mg/kg/injection, schedule: Q01DX010 (ip), vehicle: saline): 70 % of control | T/C [3]: 12 % of control | T/C (dose: 166.66 mg/kg/injection, schedule: Q04DX003 (sc), vehicle: saline): 170 % of control | T/C [9]: -33 % of control | T/C (dose: 333.33 mg/kg/injection, schedule: Q04DX003 (sc), vehicle: saline): 150 % of control | T/C (dose: 666.65 mg/kg/injection, schedule: Q04DX003 (sc), vehicle: saline): 59 % of control

COc1cc(C[C@H]2c3cc(OC)c(OC)cc3CCN2C)c(Oc2cc3c(cc2OC)-c2c(OC)c(OC)cc4c2[C@H](C3)N(C)CC4)cc1OC
T/C (dose: 50.0 mg/kg/injection, schedule: Q01DX010 (sc), vehicle: saline with Tween-80): 85 % of control | T/C [7]: 107 % of control | T/C [8]: 73 % of control | T/C [10]: 90 % of control

Nc1ncn(C2OC(CO)C(O)C2O)c(=O)n1 (centres undefined)
T/C (dose: 5.0 mg/kg/injection, schedule: Q04DX003 (sc), vehicle: saline): 47 % of control | T/C (dose: 10.0 mg/kg/injection, schedule: Q04DX003 (sc), vehicle: saline): 39 % of control | T/C [4]: 34 % of control | T/C (dose: 200.0 mg/kg/injection, schedule: Q04DX003 (sc), vehicle: saline): 18 % of control and 28 % of control | T/C (dose: 400.0 mg/kg/injection, schedule: Q04DX003 (sc), vehicle: saline): 15 % of control and 32 % of control | T/C (dose: 1600.0 mg/kg/injection, schedule: Q04DX003 (sc), vehicle: saline): -72 % of control

CC(C)C(N)C(=O)Nc1nncs1 (centres undefined)
T/C (dose: 150.0 mg/kg/injection, schedule: Q04DX003 (sc), vehicle: saline): 102 % of control | T/C (dose: 300.0 mg/kg/injection, schedule: Q04DX003 (sc), vehicle: saline): 74 % of control | T/C (dose: 600.0 mg/kg/injection, schedule: Q04DX003 (sc), vehicle: saline): 78 % of control

CN=NN(C)C(=O)NC
T/C (dose: 6.25 mg/kg/injection, schedule: Q04DX003 (ip), vehicle: saline): 71 % of control and 82 % of control | T/C (dose: 12.5 mg/kg/injection, schedule: Q04DX003 (ip), vehicle: saline): 28 % of control and 45 % of control | T/C (dose: 25.0 mg/kg/injection, schedule: Q04DX003 (ip), vehicle: saline): 6 % of control | T/C (dose: 50.0 mg/kg/injection, schedule: Q04DX003 (ip), vehicle: saline): -34 % of control and -18 % of control | T/C (dose: 108.0 mg/kg/injection, schedule: Q04DX003 (ip), vehicle: saline): 5 % of control | T/C (dose: 180.0 mg/kg/injection, schedule: Q04DX003 (ip), vehicle: saline): 4 % of control

Cc1ccc(S(=O)(=O)NC(=S)S)cc1
T/C [7]: 203 % of control | T/C [8]: 111 % of control | T/C [10]: 196 % of control

O=C(NO)c1ccccc1
T/C (dose: 100.0 mg/kg/injection, schedule: Q01DX010 (sc), vehicle: Klucel (hydroxypropylcellulose) (HPC)): 120 % of control | T/C (dose: 200.0 mg/kg/injection, schedule: Q01DX010 (sc), vehicle: Klucel (hydroxypropylcellulose) (HPC)): 150 % of control

CC1=CC2c3cccc4[nH]cc(c34)CC2N(C)C1 (centres undefined)
T/C (dose: 6.25 mg/kg/injection, schedule: Q04DX003 (ip), vehicle: suspension in saline): 93 % of control | T/C (dose: 12.5 mg/kg/injection, schedule: Q04DX003 (ip), vehicle: suspension in saline): 111 % of control | T/C (dose: 25.0 mg/kg/injection, schedule: Q04DX003 (ip), vehicle: suspension in saline): 115 % of control | T/C (dose: 50.0 mg/kg/injection, schedule: Q04DX003 (ip), vehicle: suspension in saline): 115 % of control

COc1c(C=O)c2c(c(OC)c1OC)-c1ccc(OC)c(=O)cc1[C@@H](NC(C)=O)CC2
T/C (dose: 18.75 mg/kg/injection, schedule: Q04DX003 (sc), vehicle: Klucel (hydroxypropylcellulose) (HPC)): 83 % of control | T/C (dose: 37.5 mg/kg/injection, schedule: Q04DX003 (sc), vehicle: Klucel (hydroxypropylcellulose) (HPC)): 59 % of control | T/C (dose: 75.0 mg/kg/injection, schedule: Q04DX003 (sc), vehicle: Klucel (hydroxypropylcellulose) (HPC)): 32 % of control

N/C=N/O
T/C [9]: 180 % of control | T/C [11]: 161 % of control

CN1c2c(nc(N)[nH]c2=O)NCC1CCNc1ccc(C(=O)NC(CCC(=O)O)C(=O)O)cc1 (centres undefined)
T/C [3]: 56 % of control | T/C [9]: 28 % of control | T/C [11]: 49 % of control | T/C (dose: 800.0 mg/kg/injection, schedule: Q01DX010 (sc), vehicle: saline): 34 % of control

C[C@]12CCC(=O)C(O)=C1CC[C@@H]1[C@@H]2CC[C@]2(C)C(=O)CC[C@@H]12
T/C (dose: 150.0 mg/kg/injection, schedule: Q04DX003 (ip), vehicle: Klucel (hydroxypropylcellulose) (HPC)): 61 % of control | T/C (dose: 300.0 mg/kg/injection, schedule: Q04DX003 (ip), vehicle: Klucel (hydroxypropylcellulose) (HPC)): 99 % of control | T/C (dose: 600.0 mg/kg/injection, schedule: Q04DX003 (ip), vehicle: Klucel (hydroxypropylcellulose) (HPC)): 89 % of control

CN(CO)c1nc(N(C)CO)nc(N(C)CO)n1
T/C (dose: 6.25 mg/kg/injection, schedule: Q01DX010 (sc), vehicle: saline): 71 % of control | T/C [1]: 100 % of control | T/C [2]: 122 % of control

OC1OC2COC(c3ccccc3)OC2C(O)C1O (centres undefined)
T/C (dose: 300.0 mg/kg/injection, schedule: Q04DX003 (sc), vehicle: water): 101 % of control | T/C (dose: 600.0 mg/kg/injection, schedule: Q04DX003 (sc), vehicle: water): 117 % of control | T/C (dose: 1200.0 mg/kg/injection, schedule: Q04DX003 (sc), vehicle: water): 105 % of control | T/C (dose: 2400.0 mg/kg/injection, schedule: Q04DX003 (sc), vehicle: water): 90 % of control

From PubChem BioAssay AID266 (DTP/NCI, 2004)
